Where “and” joins values, the source holds several entries; their conditions need not be identical. Equal entries are not always repeated.
How the values were obtained:
[1] = test system: incident CPDs (iCPDs) in pigmented C57BL/6 melanocytes (Mel-a); assay: iCPD assessment by DNA ELISA after ssUV, Mel-a; type: cell-based, mouse; details: for iCPD inhibition across doses: various doses up to 1 mg/mL, 24 h, Figure 4A
Excerpt: (§1) For UV exposures, we used a “SOL-UV6 ultraviolet solar simulator” from Newport irradiators. It is equipped with a Xenon arc lamp where the output is varied using the integrated variable attenuator aperture, which provides the ability to vary the output from 10% to 100% of the maximum available solar constants. The output spectrum is flat from 320 nm to 400 nm and no values are below 300 nm. This is abbreviated as “ssUV” for “solar-simulated UV” throughout the text. Various cell types seeded at ~50% confluency, were treated with the AZ and analogs at concentrations mentioned in the data figures for 24–h. Cells at ~80–90% confluency (untreated controls), were washed twice with PBS and exposed to 18 kJ/m^2 of ssUV in minimal amount of PBS (ex. 2 mL PBS in a 60 mm cell culture dish) without any dish lid in place. […] The ssUV apparatus was monitored almost daily using UV meters for any emissions below 300 nm. The dose was decided based upon the 80–90% cell survival post UV exposure. After exposure, one time point was collected immediately to assess iCPDs, whereas more dishes were incubated in cell culture medium, inside the cell culture incubator, for various time points to be collected post UV to assess dCPDs. For dCPD induction, it is important that the cell culture incubator is not opened for at least 30 min (the first time point post UV) to avoid possible interference from the CO2/O2 ratio, which will be altered upon opening the incubator doors. Cells were collected by scraping and washed once with PBS, which was followed by DNA isolation using a Quick DNA miniprep Kit (Cat. D3024, Zymo Research, Irvine, CA, USA). CPDs were assessed using our previously established DNA ELISA protocols. In brief, ELISA was performed using mouse monoclonal Anti-CPD (Cat. CAC-NM-DND-001, Clone TDM-2, CosmoBio, Inc., Carlsbad, CA, USA). Flat-bottom, 96-well plates (Cat. 2801, Thermo Scientific, Waltham, MA, USA) were coated overnight with 50 µL of protamine sulphate (0.005–0.05%, Cat. P3369, Sigma, St. Lois, MO, USA) in distilled water. After washing twice with water, heat-denatured DNA was plated in triplicates from each sample, into the protamine sulphate coated plate wells (50–100 ng/well in 50 µL PBS) and incubated overnight at 37 °C. The plates were washed 5 times with 200 µL of PBST (PBS containing 0.05% Tween-20 Cat. P7949, Sigma), and blocked with 2–4% FBS in PBST (blocking buffer) for 1 h at room temperature (RT). The plates were incubated with 100 µL of a 1:1000 dilution of anti-CPD antibody in blocking buffer, and incubated for 30 min at 37 °C, which was followed by 5 washes in PBST. Next, the plates were incubated with 100 µL of a 1:2000 dilution of Biotin-F(ab’)2 fragment of anti-mouse IgG(H+L) (Cat. B-2763, Life Technologies) in blocking buffer for 30 min at 37 °C. Detection was conducted using 100 µL of a 1:10,000 dilution of Streptavidin HRP (Cat. 434323, Life Technologies) in 2% FBS for 30 min at 37 °C, which was followed by 5 washes. The plates were washed once with citrate phosphate buffer (24.3 mM citric acid monohydrate, J.T. Baker Cat. 0110-01- and 51.4-mM sodium phosphate dibasic, Sigma Cat. S7907, pH 5.0). The o-phenylene diamine dihydrochloride (Cat. P8287-50TAB, Sigma) was used as a HRP substrate at 400 µg/mL in citrate phosphate buffer for 5–10 min. A measure of 50 µL of 2M H2SO4 was used to stop the reaction as soon as the color developed (5–10 min incubation in substrate), and OD was measured at 490 nm using a Synergy-2 multimode microplate reader (BioTek, Winooski, VT, USA).

[2] = test system: Xpa, Xpc, Mitf, Xrcc1 expression in Mel-a; assay: qPCR expression of NER pathway genes, Mel-a; type: cell-based, mouse
Experimental: (§2) Various cell types were collected 24-h post incubation with 200 µg/mL AZ and MBPD, with and without ssUV exposure. RNA was isolated using a Quick-RNA isolation kit (Cat. R1050, Zymo Research). The cDNA was prepared using a High-Capacity cDNA Reverse Transcription Kit (Cat. 4368814, ThermoFisher Scientific). The gene expression of XPA, XPC, and MITF genes was assessed using the following primers. β-actin was used as an internal control for normalizations and data analyses. F1-R1 and F2-R2 represents two primer pairs which were used in the qPCR experiments.

[3] = test system: delayed (dark) CPDs (dCPDs) in Mel-a cells; assay: dCPD assessment by DNA ELISA post ssUV, Mel-a; type: cell-based, mouse
Excerpt: (§3) For UV exposures, we used a “SOL-UV6 ultraviolet solar simulator” from Newport irradiators. It is equipped with a Xenon arc lamp where the output is varied using the integrated variable attenuator aperture, which provides the ability to vary the output from 10% to 100% of the maximum available solar constants. The output spectrum is flat from 320 nm to 400 nm and no values are below 300 nm. This is abbreviated as “ssUV” for “solar-simulated UV” throughout the text. Various cell types seeded at ~50% confluency, were treated with the AZ and analogs at concentrations mentioned in the data figures for 24–h. Cells at ~80–90% confluency (untreated controls), were washed twice with PBS and exposed to 18 kJ/m^2 of ssUV in minimal amount of PBS (ex. 2 mL PBS in a 60 mm cell culture dish) without any dish lid in place. […] The ssUV apparatus was monitored almost daily using UV meters for any emissions below 300 nm. The dose was decided based upon the 80–90% cell survival post UV exposure. After exposure, one time point was collected immediately to assess iCPDs, whereas more dishes were incubated in cell culture medium, inside the cell culture incubator, for various time points to be collected post UV to assess dCPDs. For dCPD induction, it is important that the cell culture incubator is not opened for at least 30 min (the first time point post UV) to avoid possible interference from the CO2/O2 ratio, which will be altered upon opening the incubator doors. Cells were collected by scraping and washed once with PBS, which was followed by DNA isolation using a Quick DNA miniprep Kit (Cat. D3024, Zymo Research, Irvine, CA, USA). CPDs were assessed using our previously established DNA ELISA protocols. In brief, ELISA was performed using mouse monoclonal Anti-CPD (Cat. CAC-NM-DND-001, Clone TDM-2, CosmoBio, Inc., Carlsbad, CA, USA). […] A measure of 50 µL of 2M H2SO4 was used to stop the reaction as soon as the color developed (5–10 min incubation in substrate), and OD was measured at 490 nm using a Synergy-2 multimode microplate reader (BioTek, Winooski, VT, USA).

[4] = test system: incident CPDs (iCPDs) in HaCaT cells; assay: iCPD assessment by DNA ELISA after ssUV, HaCaT; type: cell-based, human; details: various doses, Supplementary Figure S2A
Excerpt: as §3

[5] = test system: nitrotyrosine / nitric oxide synthase (NOS) activity in Mel-a melanocytes; assay: Immunofluorescence for nitrotyrosine (marker of NOS activity); type: cell-based, mouse; details: 50 µg/mL, 24–36 h
Experimental: Posttranslational modification nitrotyrosine was used as a marker of nitric oxide synthase (NOS) activity. Melanocytes were cultured on collagen-coated, glass-bottom dishes (cat. P35G-1.5-14-C, MatTek, Ashland, MA, USA). After various treatments, cells were fixed with 4% formaldehyde for 10 min at RT, washed with PBS, and permeabilized with 0.5% Triton-X in PBS for 10 min. After blocking for non-specific antibody binding using 5% goat serum (Cat. 16210064, ThermoFisher Scientific) and 1% globulin free BSA (Cat. 001-000-161, Jackson ImmunoResearch, West Grove, PA, USA) in 0.1% Triton-x in PBS (blocking buffer) for 2 h at room temperature, cells were incubated with 1:1000 dilution of anti-nitrotyrosine antibody (Cat. A-21285, ThermoFisher Scientific) overnight at 4 °C. Detection was conducted using Alexa Fluor 488 Goat Anti-rabbit IgG (Cat. A-11008, Life Technologies). Imaging was performed using a ZEISS Axio Observer microscope. Approximately 5–10 images per condition, with ~70–100 cells per image, were quantitated for nitrotyrosine fluorescence using ImageJ software.

[6] = test system: incident CPDs (iCPDs) in NBHF cells; assay: iCPD assessment by DNA ELISA after ssUV, NBHF; type: cell-based, human
Excerpt: as §1

[7] = test system: Xpa, Xpc, Mitf, Xrcc1 expression in Mel-c; assay: qPCR expression of NER pathway genes, Mel-c; type: cell-based, mouse; details: 24 h incubation
Experimental: as §2

[8] = test system: incident CPDs (iCPDs) in albino C57BL/6 melanocytes (Mel-c); assay: iCPD assessment by DNA ELISA after ssUV, Mel-c; type: cell-based, mouse; details: various doses up to 1 mg/mL, 24 h, Figure 4B
Excerpt: as §3

[9] = test system: melanin in Mel-a cells; assay: Melanin amount in melanocytes cultured in varied tyrosine; type: cell-based; details: 50 µg/mL
Experimental: The amino acid tyrosine is essential for melanin synthesis, and it is added to the OptiMem medium at a proprietary concentration by ThermoFisher. Assuming this concentration to be “100% tyrosine”, we purchased the “custom-prepared, tyrosine-free” medium from ThermoFisher. This medium lacked tyrosine or its precursors, which include L-tyrosine, L-tyrosine-2Na-2H2O, L-tyrosine-Di-sodium salt, Hypoxanthine, and Sodium Hypoxanthine. Mel-a (pigmented mouse melanocyte) cells were cultured in regular cell culture medium containing 100% tyrosine, and in medium containing 20%, 4%, or 0% of the total tyrosine amount. This was achieved by diluting the regular OptiMem with the one containing no tyrosine (tyrosine-free, 0% tyrosine). […] Since the cells cultured in 0%-tyrosine medium lost their pigment over time (Figure 5) and the cell pellets were almost white or opaque in color, we assumed that the minimal amount of tyrosine from the horse serum used in the cell culture medium was not sufficient for melanin synthesis. To estimate the amount of melanin, 3 × 10^6–5 × 10^6 cells were lysed in 1M sodium hydroxide (NaOH) by heating them at 100 °C for 1–2 h, which was followed by a 10-min spin at 14,000 rpm at room temperature to remove any cell debris. Absorbance of the supernatant was recorded using the supernatant in a 96-well plate in triplicates from each sample, at 460–490 nm. Synthetic melanin (Cat. M0418, Sigma) was dissolved in methanol and used as a positive control to generate standard curves to estimate the melanin amount in cell lysates. The number of cells in each pellet was used as a normalization factor for each experimental condition. In a complementary experiment, cells were first bleached out of melanin completely by culturing them in tyrosine-free medium, followed by 100/20/4/0% tyrosine (not shown) treatment. This seemed to be cytotoxic, comparatively more so in 100% tyrosine, probably owing to the toxicity of the sudden rush of melanin derivatives and the oxidative stress generated during melanin synthesis.

With `COc1ccc(CC(C(C)=O)C(C)=O)cc1` [MBPD, 3-(4-Methoxy-benzyl)-pentane-2,4-dione] the “Blockade of iCPDs” value ([1]; 50 µg/mL, 24-h preincubation, 18 kJ/m^2 ssUV) was about 50%, the “iCPD inhibition across doses” value [1] was “blocked iCPD generation in a dose-dependent manner” and the “NER pathway gene expression post UV exposure” value ([2]; 200 µg/ml, 24 h, then 18 kJ/m2 ssUV, various time points, relative to UV-induced upregulation) was “elevated slightly”. The “Gene expression of Xpa, Xpc and Mitf (NER pathway)” value ([2]; 24 h incubation, no UV, qPCR) was “upregulated”, the “Gene expression of Xrcc1” value ([2]; 24 h incubation, qPCR) was “remained unaffected” and the “Inhibition of delayed CPDs (dCPDs)” value ([3]; Mel-a, 50 µg/mL, 24–36 h preincubation, 0.5 to 4 h post ssUV, Figure 4C) was “abrogated the delayed CPDs completely”. For the same compound, the “Inhibition of total CPDs (iCPDs + dCPDs)” value ([3]; extrapolated from 50% iCPD reduction and complete dCPD blockade, pigmented melanocytes) was ~ 80% and 70–80%, the “iCPD inhibition” value [4] was “did not show any effect” and the “Amount of nitrotyrosine (NOS activity marker)” value [5] was “reduced the amount of nitrotyrosine”. The “Blockade of iCPDs” value ([6]; 50 µg/mL, 24 h preincubation, 18 kJ/m^2 ssUV) was ~ 50%, the inhibition at 10 µg/mL ([6]; Homo sapiens, 10 ug/mL, Figure 3C, read-out: Inhibition of iCPD formation) was 30 to 40% and the “iCPD inhibition across doses” value ([6]; various doses, Figure 3C / Supplementary Figure S2B) was “dose-dependent manner”. The “Gene expression of Xrcc1” value [7] was “remained unaffected”, the “Gene expression of Xpa, Xpc and Mitf (NER pathway)” value ([7]; no UV) was “upregulated” and the “iCPD inhibition across doses” value [8] was “no significant impact”. For the same compound, the “Reduction in melanin (pigmentation)” value ([9]; 20% or less tyrosine, ~2–3 weeks) was over 50%, the “Reduction in melanin concentration” value ([9]; 100% tyrosine, ~2–3 weeks) was ~ 25% and the “Cell death on longer incubation” value ([9]; 2–3 weeks incubation) was 10–15%.
For `COc1ccc(CCC(C)=O)cc1` [RKME, 4-(4-Methoxyphenyl)-butan-2-one, reference compound], the “iCPD inhibition across doses” value [1] was “did not show any impact”, the “iCPD inhibition across doses” value ([1]; listed as RMKE) was “completely abrogated the ability of the molecule to prevent CPD formation” and the “iCPD inhibition” value [4] was “did not show any effect”. For the same compound, the “iCPD inhibition across doses” value [8] was “did not show any impact”.
With `COc1cc(CC(C(C)=O)C(C)=O)cc(OC)c1OC` [TMBPD, 3-(3,4,5-trimethoxy-benzyl)-pentane-2,4-dione] the “Inhibition of iCPD formation” value ([6]; 50 µg/mL, 24 h preincubation, 18 kJ/m^2 ssUV, Figure 3B) was “inhibited iCPD formation to varying extents”.

Reference: PMC9952391, “The Role of Acetyl Zingerone and Its Derivatives in Inhibiting UV-Induced, Incident, and Delayed Cyclobutane Pyrimidine Dimers” (Antioxidants, 2023)
